Laboratory results: PubChem BioAssay (NCI)
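Tested at 5 concentrations; 48 h exposure; 96-well plates; endpoints linearly interpolated, else capped at highest concentration. TGI denotes the concentration required for complete inhibition of growth.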

Key:
Assay in all cases: DTP human tumour cell line panel, 48 h
SK-OV-3 ovarian = tested on: SK-OV-3 ovarian
T-47D breast = tested on: T-47D breast
U251 CNS = tested on: U251 CNS
SK-MEL-28 melanoma = tested on: SK-MEL-28 melanoma
KM12 colon = tested on: KM12 colon
DU-145 prostate = tested on: DU-145 prostate
UACC-257 melanoma = tested on: UACC-257 melanoma
A498 renal = tested on: A498 renal
ACHN renal = tested on: ACHN renal
MOLT-4 leukemia = tested on: MOLT-4 leukemia
OVCAR-8 ovarian = tested on: OVCAR-8 ovarian
HCT-116 colon = tested on: HCT-116 colon
SNB-75 CNS = tested on: SNB-75 CNS
IGROV1 ovarian = tested on: IGROV1 ovarian
RXF 393 renal = tested on: RXF 393 renal
NCI-H522 lung = tested on: NCI-H522 lung
NCI-H226 lung = tested on: NCI-H226 lung
SF-539 CNS = tested on: SF-539 CNS
786-0 renal = tested on: 786-0 renal
OVCAR-4 ovarian = tested on: OVCAR-4 ovarian
HT29 colon = tested on: HT29 colon
MDA-MB-231 breast = tested on: MDA-MB-231 breast
HS 578T breast = tested on: HS 578T breast
OVCAR-5 ovarian = tested on: OVCAR-5 ovarian
SF-268 CNS = tested on: SF-268 CNS
NCI-H460 lung = tested on: NCI-H460 lung
SK-MEL-5 melanoma = tested on: SK-MEL-5 melanoma
SF-295 CNS = tested on: SF-295 CNS
NCI-H23 lung = tested on: NCI-H23 lung
K-562 leukemia = tested on: K-562 leukemia
COLO 205 colon = tested on: COLO 205 colon
OVCAR-3 ovarian = tested on: OVCAR-3 ovarian
RPMI-8226 leukemia = tested on: RPMI-8226 leukemia
LOX IMVI melanoma = tested on: LOX IMVI melanoma
HCC-2998 colon = tested on: HCC-2998 colon
CCRF-CEM leukemia = tested on: CCRF-CEM leukemia
MALME-3M melanoma = tested on: MALME-3M melanoma
NCI/ADR-RES ovarian = tested on: NCI/ADR-RES ovarian
HL-60(TB) leukemia = tested on: HL-60(TB) leukemia
MCF7 breast = tested on: MCF7 breast
MDA-MB-435 = tested on: MDA-MB-435
UO-31 renal = tested on: UO-31 renal
EKVX NSCLC = tested on: EKVX NSCLC
HCT-15 colon = tested on: HCT-15 colon
PC-3 prostate = tested on: PC-3 prostate
MDA-N = tested on: MDA-N
HOP-92 NSCLC = tested on: HOP-92 NSCLC
SN12C renal = tested on: SN12C renal
UACC-62 melanoma = tested on: UACC-62 melanoma
SW-620 colon = tested on: SW-620 colon
SR leukemia = tested on: SR leukemia
M14 melanoma = tested on: M14 melanoma
A549 NSCLC = tested on: A549 NSCLC
BT-549 breast = tested on: BT-549 breast
HOP-62 NSCLC = tested on: HOP-62 NSCLC
TK-10 renal = tested on: TK-10 renal
SNB-19 CNS = tested on: SNB-19 CNS
SK-MEL-2 melanoma = tested on: SK-MEL-2 melanoma
CAKI-1 renal = tested on: CAKI-1 renal

For Cc1cccc2c1CC1(Cc3ccccc3C1=O)C2=O (stereo not drawn), the TGI (SK-OV-3 ovarian) was 99.6 µM, the TGI (T-47D breast) was > 100 µM and the TGI (U251 CNS) was > 100 µM. For the same molecule, the TGI (SK-MEL-28 melanoma) was > 100 µM, the TGI (KM12 colon) was > 100 µM and the TGI (DU-145 prostate) was > 100 µM. The TGI (UACC-257 melanoma) was > 100 µM, the TGI (A498 renal) was > 100 µM and the TGI (ACHN renal) was > 100 µM. For the same molecule, the TGI (MOLT-4 leukemia) was > 100 µM, the TGI (OVCAR-8 ovarian) was > 100 µM and the TGI (HCT-116 colon) was > 100 µM. For the same molecule, the TGI (SNB-75 CNS) was > 100 µM, the TGI (IGROV1 ovarian) was > 100 µM and the TGI (RXF 393 renal) was > 100 µM. The TGI (NCI-H522 lung) was > 100 µM, the TGI (NCI-H226 lung) was > 100 µM and the TGI (SF-539 CNS) was > 100 µM. The TGI (786-0 renal) was > 100 µM, the TGI (OVCAR-4 ovarian) was > 100 µM and the TGI (HT29 colon) was > 100 µM. For the same molecule, the TGI (MDA-MB-231 breast) was > 100 µM, the TGI (HS 578T breast) was > 100 µM and the TGI (OVCAR-5 ovarian) was > 100 µM. For the same molecule, the TGI (SF-268 CNS) was > 100 µM, the TGI (NCI-H460 lung) was > 100 µM and the TGI (SK-MEL-5 melanoma) was > 100 µM. For the same molecule, the TGI (SF-295 CNS) was > 100 µM, the TGI (NCI-H23 lung) was > 100 µM and the TGI (K-562 leukemia) was > 100 µM. The TGI (COLO 205 colon) was > 100 µM, the TGI (OVCAR-3 ovarian) was > 100 µM and the TGI (RPMI-8226 leukemia) was > 100 µM. The TGI (LOX IMVI melanoma) was > 100 µM, the TGI (HCC-2998 colon) was > 100 µM and the TGI (CCRF-CEM leukemia) was > 100 µM. The TGI (MALME-3M melanoma) was > 100 µM, the TGI (NCI/ADR-RES ovarian) was > 100 µM and the TGI (HL-60(TB) leukemia) was > 100 µM. The TGI (MCF7 breast) was > 100 µM, the TGI (MDA-MB-435) was > 100 µM and the TGI (UO-31 renal) was > 100 µM. For the same molecule, the TGI (EKVX NSCLC) was > 100 µM, the TGI (HCT-15 colon) was > 100 µM and the TGI (PC-3 prostate) was > 100 µM. The TGI (MDA-N) was > 100 µM, the TGI (HOP-92 NSCLC) was > 100 µM and the TGI (SN12C renal) was > 100 µM. For the same molecule, the TGI (UACC-62 melanoma) was > 100 µM, the TGI (SW-620 colon) was > 100 µM and the TGI (SR leukemia) was > 100 µM. For the same molecule, the TGI (M14 melanoma) was > 100 µM, the TGI (A549 NSCLC) was > 100 µM and the TGI (BT-549 breast) was 80.6 µM. For the same molecule, the TGI (HOP-62 NSCLC) was > 100 µM, the TGI (TK-10 renal) was > 100 µM and the TGI (SNB-19 CNS) was > 100 µM.
CCCCCCCC/C=C(\Br)C(O)C(Br)Br (stereo not drawn) was tested, and the TGI (SK-OV-3 ovarian) was 90.6 µM, the TGI (T-47D breast) was > 100 µM and the TGI (U251 CNS) was > 100 µM. The TGI (SK-MEL-2 melanoma) was 63.7 µM, the TGI (SK-MEL-28 melanoma) was > 100 µM and the TGI (KM12 colon) was 59.6 µM. For the same molecule, the TGI (DU-145 prostate) was > 100 µM, the TGI (UACC-257 melanoma) was 76.1 µM and the TGI (A498 renal) was 68.1 µM. The TGI (ACHN renal) was 51.9 µM, the TGI (MOLT-4 leukemia) was > 100 µM and the TGI (OVCAR-8 ovarian) was 49.5 µM. The TGI (HCT-116 colon) was > 100 µM, the TGI (SNB-75 CNS) was > 100 µM and the TGI (IGROV1 ovarian) was 59.1 µM. It also gave a TGI (RXF 393 renal) of 37.8 µM, a TGI (NCI-H522 lung) of 38.4 µM and a TGI (786-0 renal) of 39.7 µM. The TGI (OVCAR-4 ovarian) was 85.9 µM, the TGI (MDA-MB-231 breast) was > 100 µM and the TGI (HS 578T breast) was 74.7 µM. For the same molecule, the TGI (OVCAR-5 ovarian) was 43.6 µM, the TGI (SF-268 CNS) was 53.1 µM and the TGI (NCI-H460 lung) was 86.8 µM. For the same molecule, the TGI (SK-MEL-5 melanoma) was 34 µM, the TGI (SF-295 CNS) was 41.5 µM and the TGI (NCI-H23 lung) was 47.7 µM. For the same molecule, the TGI (K-562 leukemia) was > 100 µM, the TGI (COLO 205 colon) was 41 µM and the TGI (OVCAR-3 ovarian) was 34.8 µM. For the same molecule, the TGI (RPMI-8226 leukemia) was > 100 µM, the TGI (LOX IMVI melanoma) was 41.2 µM and the TGI (HCC-2998 colon) was 48 µM. For the same molecule, the TGI (CCRF-CEM leukemia) was 35.5 µM, the TGI (MALME-3M melanoma) was 43 µM and the TGI (NCI/ADR-RES ovarian) was 57.2 µM. It also gave a TGI (MCF7 breast) of 98.3 µM, a TGI (CAKI-1 renal) of 63.7 µM and a TGI (MDA-MB-435) of 59.1 µM. It also gave a TGI (UO-31 renal) of 38.8 µM, a TGI (EKVX NSCLC) of 92.9 µM and a TGI (HCT-15 colon) of 47.2 µM. The TGI (PC-3 prostate) was > 100 µM, the TGI (MDA-N) was 54.1 µM and the TGI (HOP-92 NSCLC) was 42.9 µM. The TGI (SN12C renal) was 36.6 µM, the TGI (UACC-62 melanoma) was 41.6 µM and the TGI (SW-620 colon) was 34.2 µM. For the same molecule, the TGI (SR leukemia) was > 100 µM, the TGI (M14 melanoma) was 48.5 µM and the TGI (A549 NSCLC) was > 100 µM. For the same molecule, the TGI (BT-549 breast) was 44.8 µM, the TGI (HOP-62 NSCLC) was 47.6 µM and the TGI (TK-10 renal) was > 100 µM. For the same molecule, the TGI (SNB-19 CNS) was > 100 µM.
For CC(=O)N/N=C1/NN(C(C)=O)C2(S1)C(=O)Nc1ccc(C)cc12 (stereo not drawn), the TGI (T-47D breast) was 70.9 µM, the TGI (U251 CNS) was > 100 µM and the TGI (SK-MEL-28 melanoma) was > 100 µM. The TGI (KM12 colon) was > 100 µM, the TGI (DU-145 prostate) was > 100 µM and the TGI (UACC-257 melanoma) was > 100 µM. For the same molecule, the TGI (A498 renal) was > 100 µM, the TGI (ACHN renal) was > 100 µM and the TGI (MOLT-4 leukemia) was > 100 µM. For the same molecule, the TGI (OVCAR-8 ovarian) was > 100 µM, the TGI (HCT-116 colon) was > 100 µM and the TGI (SNB-75 CNS) was > 100 µM. The TGI (IGROV1 ovarian) was > 100 µM, the TGI (RXF 393 renal) was > 100 µM and the TGI (NCI-H522 lung) was > 100 µM. The TGI (NCI-H226 lung) was > 100 µM, the TGI (SF-539 CNS) was > 100 µM and the TGI (786-0 renal) was > 100 µM. For the same molecule, the TGI (OVCAR-4 ovarian) was > 100 µM, the TGI (HT29 colon) was > 100 µM and the TGI (MDA-MB-231 breast) was > 100 µM. The TGI (HS 578T breast) was > 100 µM, the TGI (OVCAR-5 ovarian) was > 100 µM and the TGI (SF-268 CNS) was > 100 µM. The TGI (NCI-H460 lung) was > 100 µM, the TGI (SK-MEL-5 melanoma) was > 100 µM and the TGI (SF-295 CNS) was > 100 µM. The TGI (NCI-H23 lung) was > 100 µM, the TGI (K-562 leukemia) was > 100 µM and the TGI (COLO 205 colon) was > 100 µM. The TGI (OVCAR-3 ovarian) was > 100 µM, the TGI (RPMI-8226 leukemia) was > 100 µM and the TGI (LOX IMVI melanoma) was > 100 µM. The TGI (HCC-2998 colon) was > 100 µM, the TGI (CCRF-CEM leukemia) was > 100 µM and the TGI (MALME-3M melanoma) was > 100 µM. For the same molecule, the TGI (NCI/ADR-RES ovarian) was > 100 µM, the TGI (HL-60(TB) leukemia) was > 100 µM and the TGI (MCF7 breast) was > 100 µM. For the same molecule, the TGI (CAKI-1 renal) was > 100 µM, the TGI (MDA-MB-435) was > 100 µM and the TGI (UO-31 renal) was > 100 µM. For the same molecule, the TGI (EKVX NSCLC) was > 100 µM, the TGI (HCT-15 colon) was > 100 µM and the TGI (PC-3 prostate) was > 100 µM. The TGI (MDA-N) was > 100 µM, the TGI (HOP-92 NSCLC) was > 100 µM and the TGI (SN12C renal) was > 100 µM. For the same molecule, the TGI (UACC-62 melanoma) was > 100 µM, the TGI (SR leukemia) was > 100 µM and the TGI (M14 melanoma) was > 100 µM. For the same molecule, the TGI (A549 NSCLC) was > 100 µM, the TGI (BT-549 breast) was > 100 µM and the TGI (HOP-62 NSCLC) was > 100 µM. For the same molecule, the TGI (TK-10 renal) was > 100 µM and the TGI (SNB-19 CNS) was > 100 µM.
